# Source: patent US20210038515A1 (Azurity Pharmaceuticals, Inc., priority 2014, published 2021)
# Tests used:
# [1] = test system: Bifidobacterium adolescentis; assay: Agar dilution test, other anaerobic organisms; format: cell-based; conditions: for MIC, AV (average): average of triplicate; for MIC, VAN-1: replicate 1; for MIC, VAN-2: replicate 2; for MIC, VAN-3: replicate 3
# Bacteroides fragilis = assay: Agar dilution test, other anaerobic organisms; format: cell-based; conditions: for MIC, AV (average): average of triplicate; for MIC, VAN-1: replicate 1; for MIC, VAN-2: replicate 2; for MIC, VAN-3: replicate 3
smiles,measurement,setting,value
CN[C@H](CC(C)C)C(=O)N[C@H]1C(=O)N[C@@H](CC(N)=O)C(=O)N[C@H]2C(=O)N[C@H]3C(=O)N[C@H](C(=O)N[C@H](C(=O)O)c4cc(O)cc(O)c4-c4cc3ccc4O)[C@H](O)c3ccc(c(Cl)c3)Oc3cc2cc(c3O[C@@H]2O[C@H](CO)[C@@H](O)[C@H](O)[C@H]2O[C@H]2C[C@](C)(N)[C@H](O)[C@H](C)O2)Oc2ccc(cc2Cl)[C@H]1O.Cl [Sigma],"MIC, AV (average)",[1]; Bif. adolescentis RMA 21317,1 mg/L
same,"MIC, VAN-1",[1]; Bif. adolescentis RMA 21317,1 mg/L
same,"MIC, VAN-2",[1]; Bif. adolescentis RMA 21317,1 mg/L
same,"MIC, VAN-3",[1]; Bif. adolescentis RMA 21317,1 mg/L
same,"MIC, AV (average)",[1]; Bif. adolescentis RMA 21531,3 mg/L
same,"MIC, VAN-1",[1]; Bif. adolescentis RMA 21531,0.5 mg/L
same,"MIC, VAN-2",[1]; Bif. adolescentis RMA 21531,1 mg/L
same,"MIC, VAN-3",[1]; Bif. adolescentis RMA 21531,1 mg/L
same,"MIC, AV (average)",[1]; Bif. adolescentis RMA 21551,1 mg/L
same,"MIC, VAN-1",[1]; Bif. adolescentis RMA 21551,1 mg/L
same,"MIC, VAN-2",[1]; Bif. adolescentis RMA 21551,1 mg/L
same,"MIC, VAN-3",[1]; Bif. adolescentis RMA 21551,1 mg/L
same,"MIC, AV (average)",[1]; Bif. adolescentis RMA 21680,1 mg/L
same,"MIC, VAN-1",[1]; Bif. adolescentis RMA 21680,1 mg/L
same,"MIC, VAN-2",[1]; Bif. adolescentis RMA 21680,1 mg/L
same,"MIC, VAN-3",[1]; Bif. adolescentis RMA 21680,1 mg/L
same,"MIC, AV (average)",[1]; Bif. adolescentis RMA 21703,1 mg/L
same,"MIC, VAN-1",[1]; Bif. adolescentis RMA 21703,1 mg/L
same,"MIC, VAN-2",[1]; Bif. adolescentis RMA 21703,1 mg/L
same,"MIC, VAN-3",[1]; Bif. adolescentis RMA 21703,1 mg/L
same,"MIC, AV (average)",Bacteroides fragilis; B. fragilis RMA 26978,>16 mg/L
same,"MIC, VAN-1",Bacteroides fragilis; B. fragilis RMA 26978,>16 mg/L
same,"MIC, VAN-2",Bacteroides fragilis; B. fragilis RMA 26978,>16 mg/L
same,"MIC, VAN-3",Bacteroides fragilis; B. fragilis RMA 26978,>16 mg/L
same,"MIC, AV (average)",Bacteroides fragilis; B. fragilis RMA 26979,>16 mg/L
same,"MIC, VAN-1",Bacteroides fragilis; B. fragilis RMA 26979,>16 mg/L
same,"MIC, VAN-2",Bacteroides fragilis; B. fragilis RMA 26979,>16 mg/L
same,"MIC, VAN-3",Bacteroides fragilis; B. fragilis RMA 26979,>16 mg/L
same,"MIC, AV (average)",Bacteroides fragilis; B. fragilis RMA 26980,>16 mg/L
same,"MIC, VAN-1",Bacteroides fragilis; B. fragilis RMA 26980,>16 mg/L
same,"MIC, VAN-2",Bacteroides fragilis; B. fragilis RMA 26980,>16 mg/L
same,"MIC, VAN-3",Bacteroides fragilis; B. fragilis RMA 26980,>16 mg/L
same,"MIC, AV (average)",Bacteroides fragilis; B. fragilis RMA 26981,>16 mg/L
same,"MIC, VAN-1",Bacteroides fragilis; B. fragilis RMA 26981,>16 mg/L
same,"MIC, VAN-2",Bacteroides fragilis; B. fragilis RMA 26981,>16 mg/L
same,"MIC, VAN-3",Bacteroides fragilis; B. fragilis RMA 26981,>16 mg/L
same,"MIC, AV (average)",Bacteroides fragilis; B. fragilis RMA 26982,>16 mg/L
same,"MIC, VAN-1",Bacteroides fragilis; B. fragilis RMA 26982,>16 mg/L
same,"MIC, VAN-2",Bacteroides fragilis; B. fragilis RMA 26982,>16 mg/L
same,"MIC, VAN-3",Bacteroides fragilis; B. fragilis RMA 26982,>16 mg/L
